How the values were obtained:
[1] = molecular target: T1, human PKCθ full length enzyme (Homo sapiens, UniProt Q04759); experiment: PKCθ IMAP Assay; type: biochemical; settings: average value when one or more samples were tested; ATP 6 uM, PKCθ 1 nM
T1 construct: human PKCθ full length enzyme (Panvera Catalog No. P2996); purchased Panvera P2996
Method in brief: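 Full-length human PKCθ (1 nM final) with 6 uM ATP and 100 nM 5FAM-labelled peptide, 5% DMSO, 3.0 mM DTT in reaction buffer. 25 min at room temperature; IMAP bead binding 20 min, fluorescence polarization read. Compounds 2:1 serially diluted; no-ATP and no-enzyme wells as controls.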

T1 sequence (Q04759 whole entry): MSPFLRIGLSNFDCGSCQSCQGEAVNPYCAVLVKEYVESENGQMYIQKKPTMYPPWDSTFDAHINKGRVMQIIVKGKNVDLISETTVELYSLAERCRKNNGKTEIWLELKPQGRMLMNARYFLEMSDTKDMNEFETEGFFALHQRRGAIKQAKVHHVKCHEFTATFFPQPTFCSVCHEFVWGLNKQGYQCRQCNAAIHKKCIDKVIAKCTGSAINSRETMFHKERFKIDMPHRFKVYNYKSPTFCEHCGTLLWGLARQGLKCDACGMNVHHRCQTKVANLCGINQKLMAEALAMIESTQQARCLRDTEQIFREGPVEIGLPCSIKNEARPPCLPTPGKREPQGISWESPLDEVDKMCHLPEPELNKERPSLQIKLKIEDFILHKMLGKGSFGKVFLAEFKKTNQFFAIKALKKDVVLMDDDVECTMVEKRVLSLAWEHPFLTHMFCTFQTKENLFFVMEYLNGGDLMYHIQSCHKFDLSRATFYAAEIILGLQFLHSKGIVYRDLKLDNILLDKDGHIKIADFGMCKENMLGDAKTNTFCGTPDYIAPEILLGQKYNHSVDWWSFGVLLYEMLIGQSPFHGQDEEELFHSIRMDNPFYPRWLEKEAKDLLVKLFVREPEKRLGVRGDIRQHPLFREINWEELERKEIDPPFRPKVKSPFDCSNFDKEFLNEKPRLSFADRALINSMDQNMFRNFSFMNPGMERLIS

| Compound | IC50 [1] [nM] | melting point |
| --- | --- | --- |
| N#Cc1cnc2sc(/C=C/C(=O)O)cc2c1Nc1ccc2[nH]ccc2c1 [Compound 281, (2E)-3-[5-cyano-4-(1H-indol-5-ylamino)thieno[2,3-b]pyridin-2-yl]acrylic acid] | 1960 | 230 °C (dec.) |
| Cc1c(Nc2c(C#N)cnc3sc(C(=O)N4CCCC4)cc23)ccc2[nH]ccc12 [Compound 249, 4-[(4-methyl-1H-indol-5-yl)amino]-2-(pyrrolidin-1-ylcarbonyl)thieno[2,3-b]pyridine-5-carbonitrile] | 48 | 256 °C |
| CCCCc1cc2c(Nc3ccc4[nH]ccc4c3)c(C#N)cnc2s1 [Compound 271, 2-butyl-4-(1H-indol-5-ylamino)thieno[2,3-b]pyridine-5-carbonitrile] | 1160 | 210 °C |
| COC(=O)c1cc2c(Nc3ccc4[nH]ccc4c3C)c(C#N)cnc2s1 [Compound 245, methyl 5-cyano-4-[(4-methyl-1H-indol-5-yl)amino]thieno[2,3-b]pyridine-2-carboxylate] | 68 | 255 °C |
| CCOC(=O)CCc1cc2c(Nc3ccc4[nH]ccc4c3)c(C#N)cnc2s1 [Compound 284, ethyl 3-[5-cyano-4-(1H-indol-5-ylamino)thieno[2,3-b]pyridin-2-yl]propanoate] | 657 | 202 °C |
| N#Cc1cnc2sc(CN3CCCC3)cc2c1Nc1ccc2[nH]ccc2c1 [Compound 267, 4-(1H-indol-5-ylamino)-2-(pyrrolidin-1-ylmethyl)thieno[2,3-b]pyridine-5-carbonitrile] | 3210 | 212 to 215 °C |
| CN1CCN(CCC#Cc2cc3c(Nc4ccc5[nH]ccc5c4)c(C#N)cnc3s2)CC1 [Compound 221, 4-(1H-indol-5-ylamino)-2-[4-(4-methylpiperazin-1-yl)but-1-yn-1-yl]thieno[2,3-b]pyridine-5-carbonitrile] | 170 | 195 to 197 °C |
| Cc1c(Nc2c(C#N)cnc3sc(/C=C/C(=O)O)cc23)ccc2[nH]ccc12 [Compound 283, (2E)-3-{5-cyano-4-[(4-methyl-1H-indol-5-yl)amino]thieno[2,3-b]pyridin-2-yl}acrylic acid] | 21 | > 350 °C |
| CN1CCN(CC/C=C/c2cc3c(Nc4ccc5[nH]ccc5c4)c(C#N)cnc3s2)CC1 [Compound 273, 4-(1H-indol-5-ylamino)-2-[(1E)-4-(4-methylpiperazin-1-yl)but-1-en-1-yl]thieno[2,3-b]pyridine-5-carbonitrile] | 447 | 220 °C |
| CN1CCN(CCCCc2cc3c(Nc4ccc5[nH]ccc5c4)c(C#N)cnc3s2)CC1 [Compound 274, 4-(1H-indol-5-ylamino)-2-[4-(4-methylpiperazin-1-yl)butyl]thieno[2,3-b]pyridine-5-carbonitrile] | 983 | 120 °C (dec.) |
| N#Cc1cnc2sc(-c3ccccc3)cc2c1Oc1ccc2[nH]ccc2c1 [Compound 130, 4-(1H-indol-5-yloxy)-2-phenylthieno[2,3-b]pyridine-5-carbonitrile] | 9300 | 219 to 221 °C |
| N#Cc1cnc2sc(C(=O)O)cc2c1Nc1ccc2[nH]ccc2c1 [Compound 248, 5-cyano-4-(1H-indol-5-ylamino)thieno[2,3-b]pyridine-2-carboxylic acid] | 2050 | > 250 °C |
| Cc1c(Nc2c(C#N)cnc3sc(C(=O)O)cc23)ccc2[nH]ccc12 [Compound 247, 5-cyano-4-[(4-methyl-1H-indol-5-yl)amino]thieno[2,3-b]pyridine-2-carboxylic acid] | 219 | 287 °C |
| CCOC(=O)/C=C/c1cc2c(Nc3ccc4[nH]ccc4c3)c(C#N)cnc2s1 [Compound 280, ethyl (2E)-3-[5-cyano-4-(1H-indol-5-ylamino)thieno[2,3-b]pyridin-2-yl]acrylate] | 605 | 226 °C |
| N#Cc1cnc2sc(-c3ccccc3)cc2c1NCc1ccc2[nH]ccc2c1 [Compound 124, 4-(1H-indol-5-ylmethylamino)-2-phenylthieno[2,3-b]pyridine-5-carbonitrile] | 3700 | 219 to 221 °C |

Next, values leading:

| IC50 [1] [nM] | melting point | Compound |
| --- | --- | --- |
| 63 | 230 °C | Cc1c(Nc2c(C#N)cnc3scc(CO)c23)ccc2[nH]ccc12 [Compound 496, 3-(Hydroxymethyl)-4-[(4-methyl-1H-indol-5-yl)amino]thieno[2,3-b]pyridine-5-carbonitrile] |
| 18 | 130 °C (dec.) | Cc1c(Nc2c(C#N)cnc3sc(C#Cc4cncc(CN(C)C)c4)cc23)ccc2[nH]ccc12 [Compound 452, 2-({5-[(dimethylamino)methyl]pyridin-3-yl}ethynyl)-4-[(4-methyl-1H-indol-5-yl)amino]thieno[2,3-b]pyridine-5-carbonitrile] |
| 47 | 329 °C | Cc1c(Nc2c(C#N)cnc3sc(/C=C/C(=O)O)c(C)c23)ccc2[nH]ccc12 [Compound 287, (2E)-3-{5-Cyano-3-methyl-4-[(4-methyl-1H-indol-5-yl)amino]thieno[2,3-b]pyridin-2-yl}acrylic acid] |
| 24 | > 260 °C | Cc1c(Nc2c(C#N)cnc3sc(C#Cc4cncc(C(=O)N(C)C)c4)cc23)ccc2[nH]ccc12 [Compound 451, 5-({5-cyano-4-[(4-methyl-1H-indol-5-yl)amino]thieno[2,3-b]pyridin-2-yl}ethynyl)-N,N-dimethylnicotinamide] |
| 550 | > 260 °C | Cc1c(Nc2c(C#N)cnc3sc(C#Cc4ccc(N(C)C)nc4)cc23)ccc2[nH]ccc12 [Compound 445, 2-{[6-(dimethylamino)pyridin-3-yl]ethynyl}-4-[(4-methyl-1H-indol-5-yl)amino]thieno[2,3-b]pyridine-5-carbonitrile] |
| 46 | 261 °C | Cc1c(Nc2c(C#N)cnc3scc(C)c23)ccc2[nH]ccc12 [Compound 481, 3-Methyl-4-[(4-methyl-1H-indol-5-yl)amino]thieno[2,3-b]pyridine-5-carbonitrile] |
| 1690 | 150 °C (dec.) | N#Cc1cnc2sc(CCc3ccccc3)cc2c1Nc1ccc2[nH]ccc2c1 [Compound 316, 4-(1H-Indol-5-ylamino)-2-(2-phenylethyl)thieno[2,3-b]pyridine-5-carbonitrile] |
| 176 | > 250 °C | Cc1c(Nc2c(C#N)cnc3sc(C#Cc4cc(CN(C)C)ccn4)cc23)ccc2[nH]ccc12 [Compound 444, 2-({4-[(dimethylamino)methyl]pyridin-2-yl}ethynyl)-4-[(4-methyl-1H-indol-5-yl)amino]thieno[2,3-b]pyridine-5-carbonitrile] |
| 16800 | > 245 °C | N#Cc1c[n+]([O-])c2sc(-c3ccccc3)cc2c1Nc1ccc2[nH]ccc2c1 [Compound 500, 4-(1H-indol-5-ylamino)-2-phenylthieno[2,3-b]pyridine-5-carbonitrile 7-oxide] |
| 60 | 230 to 232 °C | Cc1c(Nc2c(C#N)cnc3sc(C#Cc4ccc(CN(C)C)nc4)cc23)ccc2[nH]ccc12 [Compound 453, 2-({6-[(dimethylamino)methyl]pyridin-3-yl}ethynyl)-4-[(4-methyl-1H-indol-5-yl)amino]thieno[2,3-b]pyridine-5-carbonitrile] |
| 5020 | 255 °C | N#Cc1cnc2sc(CCC(=O)O)cc2c1Nc1ccc2[nH]ccc2c1 [Compound 285, 3-[5-cyano-4-(1H-indol-5-ylamino)thieno[2,3-b]pyridin-2-yl]propanoic acid] |
| 25 | 218 to 220 °C | Cc1c(Nc2c(C#N)cnc3sc(C#Cc4ccc(CN(C)C)o4)cc23)ccc2[nH]ccc12 [Compound 449, 2-({5-[(dimethylamino)methyl]-2-furyl}ethynyl)-4-[(4-methyl-1H-indol-5-yl)amino]thieno[2,3-b]pyridine-5-carbonitrile] |
| 23 | 182 to 184 °C | Cc1c(Nc2c(C#N)cnc3sc(-c4ccc(OCCN(C)C)cc4)cc23)ccc2[nH]ccc12 [Compound 494, 2-{4-[2-(dimethylamino)ethoxy]phenyl}-4-[(4-methyl-1H-indol-5-yl)amino]thieno[2,3-b]pyridine-5-carbonitrile] |
| 251 | 175 °C | Cc1c(Nc2c(C#N)cnc3sc(CCC(=O)N4CCCC4)cc23)ccc2[nH]ccc12 [Compound 315, 4-[(4-methyl-1H-indol-5-yl)amino]-2-(3-oxo-3-pyrrolidin-1-ylpropyl)thieno[2,3-b]pyridine-5-carbonitrile] |
| 31 | 228 °C | Cc1c(Nc2c(C#N)cnc3sc(C4=CCN(S(C)(=O)=O)CC4)cc23)ccc2[nH]ccc12 [Compound 475, 4-[(4-methyl-1H-indol-5-yl)amino]-2-[1-(methylsulfonyl)-1,2,3,6-tetrahydropyridin-4-yl]thieno[2,3-b]pyridine-5-carbonitrile] |
| 67 | 255 °C | Cc1c(Nc2c(C#N)cnc3sccc23)ccc2[nH]ccc12 [Compound 480, 4-[(4-methyl-1H-indol-5-yl)amino]thieno[2,3-b]pyridine-5-carbonitrile] |
| 125 | 198 to 200 °C | CN(C)Cc1cccc(-c2cc3c(Nc4ccc5[nH]ccc5c4)c(C#N)cnc3s2)n1 [Compound 443, 2-{6-[(dimethylamino)methyl]pyridin-2-yl}-4-(1H-indol-5-ylamino)thieno[2,3-b]pyridine-5-carbonitrile] |
| 41 | 230 °C | Cc1c(Nc2c(C#N)cnc3sc(C4=CCN(C)CC4)cc23)ccc2[nH]ccc12 [Compound 477, 4-[(4-Methyl-1H-indol-5-yl)amino]-2-(1-methyl-1,2,3,6-tetrahydropyridin-4-yl)thieno[2,3-b]pyridine-5-carbonitrile] |

From patent publication US20070082880A1 (priority 2005, published 2007)
